Assay results from ChEMBL document CHEMBL5518174 (Eur J Med Chem, 2024).
pIC50: −log10 of the molar value.

Experiments:
[1] = Downregulation of HDAC9 protein expression in human NCI-H1975 cells assessed as fold change at 0.05 uM incubated for 24 hrs by immunoblotting analysis (reference value: 1); assay type: functional
[2] = Downregulation of HDAC11 protein expression in human MDA-MB-231 cells assessed as fold change at 0.1 uM incubated for 24 hrs by immunoblotting analysis (reference value: 1); assay type: functional
[3] = Upregulation of acetylated H4 protein expression in human NCI-H1975 cells assessed as fold change at 0.1 uM incubated for 24 hrs by immunoblotting analysis (reference value: 1); assay type: functional
[4] = Downregulation of HDAC8 protein expression in human NCI-H1975 cells assessed as fold change at 0.1 uM incubated for 24 hrs by immunoblotting analysis (reference value: 1); assay type: functional
[5] = Toxicity in athymic nude BALB/c mouse xenografted with human NCI-H1975 cells assessed as effect on creatinine level at 6 mg/kg, ip administered 5 times a week for 3 weeks and measured on day 22; assay type: organism-based; conditions: in vivo, 528 h, time 22 day
[6] = Toxicity in athymic nude BALB/c mouse xenografted with human MDA-MB-231 cells assessed as effect on AST level in serum at 3 mg/kg, ip administered 5 times a week for 7 weeks; assay type: organism-based; conditions: in vivo, 1176 h
MDA-MB-231 = test: Cytotoxicity against human MDA-MB-231 cells assessed as inhibition of cell growth incubated for 48 hrs by Celltiter-glo assay; assay type: functional, cell-based; conditions: MDA-MB-231, 48 h
[7] = Upregulation of acetylated H3 protein expression in human NCI-H1975 cells assessed as fold change at 0.1 uM incubated for 24 hrs by immunoblotting analysis (reference value: 1); assay type: functional
[8] = Downregulation of HDAC1 protein expression in human MDA-MB-231 cells assessed as fold change at 0.05 uM incubated for 24 hrs by immunoblotting analysis (reference value: 1); assay type: functional
Histone deacetylase 7 = molecular target: T1, Histone deacetylase 7 (Homo sapiens, UniProt Q8WUI4); test: Inhibition of recombinant human HDAC7 using acetylated luminogenic substrate incubated for 10 mins by ultra-glo recombinant firefly luciferase based luminescence assay
T1 sequence (Q8WUI4 whole entry): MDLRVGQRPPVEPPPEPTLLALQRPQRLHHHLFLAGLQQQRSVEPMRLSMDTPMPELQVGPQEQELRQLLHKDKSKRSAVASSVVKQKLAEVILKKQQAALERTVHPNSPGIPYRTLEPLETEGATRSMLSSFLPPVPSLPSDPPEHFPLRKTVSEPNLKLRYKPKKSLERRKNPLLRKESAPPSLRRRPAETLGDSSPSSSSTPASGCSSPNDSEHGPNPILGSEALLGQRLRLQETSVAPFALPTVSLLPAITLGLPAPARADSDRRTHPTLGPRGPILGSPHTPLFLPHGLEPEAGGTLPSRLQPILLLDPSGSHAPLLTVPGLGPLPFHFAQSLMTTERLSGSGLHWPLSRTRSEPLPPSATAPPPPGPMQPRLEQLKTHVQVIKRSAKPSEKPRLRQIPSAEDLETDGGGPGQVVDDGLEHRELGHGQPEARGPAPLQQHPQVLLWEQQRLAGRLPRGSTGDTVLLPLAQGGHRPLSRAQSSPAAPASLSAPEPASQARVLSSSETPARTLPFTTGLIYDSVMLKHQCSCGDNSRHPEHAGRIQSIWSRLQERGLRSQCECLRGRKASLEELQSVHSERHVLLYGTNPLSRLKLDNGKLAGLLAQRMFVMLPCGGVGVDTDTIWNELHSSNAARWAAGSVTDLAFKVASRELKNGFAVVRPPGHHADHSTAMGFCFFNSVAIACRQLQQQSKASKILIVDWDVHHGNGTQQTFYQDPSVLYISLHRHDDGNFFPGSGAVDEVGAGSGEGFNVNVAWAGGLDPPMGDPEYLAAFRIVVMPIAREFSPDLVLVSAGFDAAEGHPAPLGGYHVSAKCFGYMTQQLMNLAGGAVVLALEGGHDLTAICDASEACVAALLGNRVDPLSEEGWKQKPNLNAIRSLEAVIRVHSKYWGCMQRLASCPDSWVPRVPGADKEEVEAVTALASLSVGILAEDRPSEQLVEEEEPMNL

[9] = Effect on HDAC5 protein expression in human MDA-MB-231 cells assessed as fold change at 0.05 uM incubated for 24 hrs by immunoblotting analysis (reference value: 1); assay type: functional

- pIC50 (Histone deacetylase 7): < 6.00
SMILES: CCOc1ccc(-c2nc(C(=O)NCc3ccc(C(=O)NO)cc3)c3[nH]c(=O)n(-c4cccnc4OC)c3n2)cn1
- fold change (FC) [1]: 0.5
- fold change (FC) [2]: 0.2
- fold change (FC) [3]: 1.95
- fold change (FC) [4]: 0.46
- Activity [5]: Non-Toxic
- Activity [6]: Non-Toxic
- pIC50 (MDA-MB-231): 6.29
- fold change (FC) [7]: 2.19
- fold change (FC) [8]: 0.84
- fold change (FC) [9]: 1.16
